Results: ChEMBL document CHEMBL4414553, “Imidazopyridine-based selective and multifunctional ligands of biological targets associated with psychiatric and neurodegenerative diseases” (Eur J Med Chem, 2019)

Experiments:
[1] = target: T1, Orexin/Hypocretin receptor type 1 (Homo sapiens, UniProt O43613); assay: Antagonist activity at human OX1R expressed in CHOK1 cells by Syto62 probe based fluorescence assay; assay type: cell-based
T1 sequence (O43613 whole entry): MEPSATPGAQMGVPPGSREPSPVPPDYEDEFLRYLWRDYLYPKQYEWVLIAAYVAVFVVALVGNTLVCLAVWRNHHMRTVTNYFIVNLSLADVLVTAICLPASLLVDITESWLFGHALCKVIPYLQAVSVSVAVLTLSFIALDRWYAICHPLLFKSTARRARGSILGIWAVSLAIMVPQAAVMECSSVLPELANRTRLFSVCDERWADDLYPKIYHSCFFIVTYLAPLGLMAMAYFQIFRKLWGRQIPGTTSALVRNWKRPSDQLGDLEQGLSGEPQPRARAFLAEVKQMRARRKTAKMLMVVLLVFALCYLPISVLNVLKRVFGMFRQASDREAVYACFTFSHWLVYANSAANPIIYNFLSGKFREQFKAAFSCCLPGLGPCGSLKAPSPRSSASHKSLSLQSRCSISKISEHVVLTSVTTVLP

Orexin receptor type 2 = target: T2, Orexin receptor type 2 (Homo sapiens, UniProt O43614); assay: Antagonist activity at human OX2R expressed in CHOK1 cells by Syto62 probe based fluorescence assay; assay type: cell-based
T2 sequence (O43614 whole entry): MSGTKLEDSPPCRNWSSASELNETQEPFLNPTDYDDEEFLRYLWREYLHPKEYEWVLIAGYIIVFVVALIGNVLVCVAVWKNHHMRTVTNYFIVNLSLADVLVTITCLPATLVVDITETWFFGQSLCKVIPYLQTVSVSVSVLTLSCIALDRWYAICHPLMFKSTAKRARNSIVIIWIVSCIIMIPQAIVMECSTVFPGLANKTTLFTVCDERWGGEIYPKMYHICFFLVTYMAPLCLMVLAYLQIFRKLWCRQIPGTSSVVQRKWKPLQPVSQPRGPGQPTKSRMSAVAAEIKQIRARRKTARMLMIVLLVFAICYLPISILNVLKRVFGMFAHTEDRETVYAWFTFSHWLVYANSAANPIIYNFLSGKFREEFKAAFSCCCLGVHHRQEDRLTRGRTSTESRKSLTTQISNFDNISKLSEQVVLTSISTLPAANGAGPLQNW

`O=C(c1nccc2[nH]cnc12)N1CCC(F)(F)C(Oc2ccc3ccccc3n2)C1` (configuration not stated) was tested, and the IC50 [1] was 89 nM and the IC50 (Orexin receptor type 2) was > 5870 nM.
